What was measured:
[1] = 101.33 kPa, Liquid; for viscosity: Capillary tube (Ostwald / Ubbelohde) method
[2] = refractive index (Na D-line) (dimensionless); settings: 101.33 kPa, Liquid, Standard Abbe refractometry
[3] = xn = mol fraction of the nth substance listed; settings: 101 kPa, Liquid
[4] = refractive index (Na D-line) (dimensionless); xn = mol fraction of the nth substance listed; settings: 101 kPa, Liquid, Standard Abbe refractometry

Cc1ccccc1C [1,2-dimethylbenzene]
Settings	refractive index, [2]	viscosity, [1] [mPa·s]
303.15 K	1.5001	0.695
313.15 K	1.4981	0.621

[1], Pycnometric method
Settings	mass density [kg/m3]
303.15 K	871.5
313.15 K	863.3

Cc1cccc(C)c1 [1,3-dimethylbenzene]
Settings	refractive index, [2]	viscosity, [1] [mPa·s]
303.15 K	1.492	0.557
313.15 K	1.4901	0.508

[1], Pycnometric method
Settings	mass density [kg/m3]
303.15 K	855.3
313.15 K	847.1

Cc1ccc(C)cc1 [1,4-dimethylbenzene]
Settings	refractive index, [2]	viscosity, [1] [mPa·s]
303.15 K	1.4911	0.566
313.15 K	1.4902	0.517

[1], Pycnometric method
Settings	mass density [kg/m3]
303.15 K	852.1
313.15 K	843.5

CC(=O)OCCC(C)C [3-methylbutyl ethanoate]
Settings	refractive index, [2]	viscosity, [1] [mPa·s]
303.15 K	1.3959	0.741
313.15 K	1.3945	0.649

[1], Pycnometric method
Settings	mass density [kg/m3]
303.15 K	862.3
313.15 K	852.8

CCc1ccccc1 [ethylbenzene]
Settings	mass density, [1] [kg/m3]	refractive index, [2]	viscosity, [1] [mPa·s]
303.15 K	857.6	1.491	0.597
313.15 K	849.2	1.4891	0.538

COC(=O)c1ccccc1 [methyl benzoate]
Settings	refractive index, [2]	viscosity, [1] [mPa·s]
303.15 K	1.5127	1.679
313.15 K	1.5083	1.414

[1], Pycnometric method
Settings	mass density [kg/m3]
303.15 K	1078.8
313.15 K	1069.2

COC(=O)c1ccccc1 [methyl benzoate] + Cc1ccccc1C
Settings	mass density, [3] [kg/m3]	refractive index, [4]	viscosity, [3] [mPa·s]
303.15 K, x1 = 0.0879	890.4	1.5006	0.757
303.15 K, x1 = 0.1997	911.4	1.5007	0.842
303.15 K, x1 = 0.3008	931.3	1.501	0.908
303.15 K, x1 = 0.3925	951.2	1.5012	0.975
303.15 K, x1 = 0.4928	970.9	1.5016	1.06
303.15 K, x1 = 0.5939	991.7	1.5022	1.16
303.15 K, x1 = 0.6852	1009.5	1.5055	1.252
303.15 K, x1 = 0.798	1031.6	1.5083	1.395
303.15 K, x1 = 0.8981	1052.1	1.511	1.506
303.15 K, x1 = 0.9485	1056.3	1.5115	1.593
313.15 K, x1 = 0.0879	882.3	1.497	0.664
313.15 K, x1 = 0.1997	902.1	1.4971	0.72
313.15 K, x1 = 0.3008	922.8	1.498	0.785
313.15 K, x1 = 0.3925	942.6	1.4996	0.836
313.15 K, x1 = 0.4928	962.4	1.5002	0.91
313.15 K, x1 = 0.5939	983	1.5017	0.992
313.15 K, x1 = 0.6852	1000.7	1.5038	1.07
313.15 K, x1 = 0.798	1022.5	1.5062	1.171
313.15 K, x1 = 0.8981	1042.8	1.5085	1.29
313.15 K, x1 = 0.9485	1046.7	1.5101	1.351
